Assays:
PTGER2 (EP2) = PTGER2 (EP2) (Homo sapiens (Human), UniProt P43116); experiment: hEP2 b-arrestin assay (PathHunter HEK 293 PTGER2 b-arrestin cells); type: cell-based; settings: antagonistic activity, beta-arrestin assay; read-out: hEP2 b-arr IC50
Method: Plate is pre-incubated 15 minutes at 37° C. Then five microliters of PGE2 (final conc. 5 μM) are transferred into the assay plate. Plate is incubated 120 minutes at 37° C.
(each concentration is measured in duplicate)

EP2 = EP2 (Homo sapiens (Human), UniProt P43116); experiment: hEP2 cAMP assay (SF295 glioblastoma cells, HTRF cAMP); type: cell-based; settings: antagonistic activity
Chain of EP2 (P43116 whole entry): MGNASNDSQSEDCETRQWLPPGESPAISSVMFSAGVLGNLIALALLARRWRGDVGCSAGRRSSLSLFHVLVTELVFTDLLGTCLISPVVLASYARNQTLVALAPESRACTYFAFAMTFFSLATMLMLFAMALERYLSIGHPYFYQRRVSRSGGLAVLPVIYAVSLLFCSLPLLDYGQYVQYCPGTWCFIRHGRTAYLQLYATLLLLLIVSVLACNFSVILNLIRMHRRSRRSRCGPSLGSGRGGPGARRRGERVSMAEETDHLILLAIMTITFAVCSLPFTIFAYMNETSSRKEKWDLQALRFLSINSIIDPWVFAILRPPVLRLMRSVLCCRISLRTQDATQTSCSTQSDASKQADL
Summary of the method: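 PGE2-driven cAMP accumulation was measured by HTRF in SF295 cells, which express endogenous EP2 only. Cells in assay buffer with 2 mM IBMX were pre-incubated 45 min at RT, then incubated 30 min at RT. Detection used competition between cellular cAMP and d2-cAMP for a cryptate anti-cAMP antibody.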

EP4 = EP4 (Homo sapiens (Human), UniProt P35408); experiment: hEP4 cAMP assay (BT549 breast cancer cells, HTRF cAMP); type: cell-based; settings: antagonistic activity, PGE2 6 nM
Chain of EP4 (P35408 whole entry): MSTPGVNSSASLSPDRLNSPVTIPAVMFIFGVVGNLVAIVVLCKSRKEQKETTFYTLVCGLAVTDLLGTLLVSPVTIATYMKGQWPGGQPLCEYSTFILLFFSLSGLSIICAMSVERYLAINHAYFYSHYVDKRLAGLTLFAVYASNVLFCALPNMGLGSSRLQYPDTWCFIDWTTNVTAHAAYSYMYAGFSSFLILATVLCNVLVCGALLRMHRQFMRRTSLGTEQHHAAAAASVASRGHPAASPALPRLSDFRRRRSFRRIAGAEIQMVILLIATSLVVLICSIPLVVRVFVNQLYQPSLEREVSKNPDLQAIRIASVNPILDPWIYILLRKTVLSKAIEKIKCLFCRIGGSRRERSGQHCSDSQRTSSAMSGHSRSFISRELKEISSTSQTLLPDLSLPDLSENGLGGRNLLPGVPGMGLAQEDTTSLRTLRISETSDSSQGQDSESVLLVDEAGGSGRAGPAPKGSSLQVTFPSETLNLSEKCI
Summary of the method: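 BT549 breast cancer cells (endogenous EP4) in HBSS/20 mM HEPES/0.2% BSA/2 mM IBMX preincubated 45 min at RT with compound, then stimulated 30 min at RT with 6 nM PGE2 (final). cAMP read by competitive HTRF immunoassay, signal inversely proportional to cAMP.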

PTGER4 (EP4) = PTGER4 (EP4) (Homo sapiens (Human), UniProt P35408)
Chain of PTGER4 (EP4) (P35408 whole entry): as above

Chain of PTGER2 (EP2) (P43116 whole entry): as the sequence (P43116 whole entry) above

SMILES	IC50 (PTGER2 (EP2)) [nM]	IC50 (EP2) [nM]	IC50 (EP4) [nM]	IC50 (PTGER4 (EP4)) [nM]
CCOc1cc(-c2cc(NCCc3ccc4ccccc4c3C)ncn2)sc1CC(=O)O [Ex 148]	174	126	141	46
CCOc1cc2ccccc2cc1CCNc1cc(-c2ccc(OCC(=O)O)c(OCC)c2)ncn1 [Ex 160]	35	93	158	24
COc1cc2ccccc2c(C)c1CCNc1cc(-c2ccc(CC(=O)O)c(SC)c2)ncn1 [Ex 163]	85	246	158	98
CCOc1cc(-c2cc(NCCc3ccc4c(c3)COC4)ncn2)sc1C(=O)O [Ex 164]	269	149	163	93
O=C(O)c1ccc(-c2cc(NCCc3ccc4c(c3)CCS4)ncn2)cc1OC1CCC1 [Ex 170]	241	94	168	124
CCOc1cc2ccccc2cc1CCNc1cc(-c2ccc(C(=O)O)c(OC3CCC3)c2)ncn1 [Ex 171]	83	120	181	62
CCOc1cc(-c2cc(NCCc3cc4ccccc4c(F)c3OC)ncn2)ccc1C(=O)O [Ex 174]	409	269	90	88
CCOc1cc(-c2cc(NCCc3cc4c(Cl)ccnc4cc3C)ncn2)sc1C(=O)O [Ex 178]	30	54	188	164
COc1cc2c(cc1CCNc1cc(-c3ccc(C(=O)O)c(OC4CCC4)c3)ncn1)OCCO2 [Ex 187]	74	64	206	144
CCOc1cc2ccccc2cc1CCNc1cc(-c2ccc(C(=O)O)c(OCC)c2)ncn1 [Ex 188]	45	142	206	105
COc1cc2c(cc1CCNc1cc(-c3ccc(CC(=O)O)c(SC)c3)ncn1)OCCO2 [Ex 197]	127	176	224	300
CSc1cc(-c2cc(NCCc3ccc4sccc4c3C)ncn2)ccc1C(=O)O [Ex 204]	12	29	186	633
CCOc1cc(-c2cc(NCCc3ccc4scc(C#N)c4c3)ncn2)ccc1CC(=O)O [Ex 209]	832	248	249	143
CSc1cc(-c2cc(NCCc3ccc4scc(C#N)c4c3)ncn2)ccc1C(=O)O [Ex 212]	255	50	253	340
COc1cc2sccc2cc1CCNc1cc(-c2ccc(CC(=O)O)c(SC)c2)ncn1 [Ex 224]	84	61	173	260

— patent US11839613B2, “Pyrimidine derivatives as PGE2 receptor modulators” (IDORSIA PHARMACEUTICALS LTD, priority 2017, dated 2023)
